These results are taken from patent publication US20030213746A1, “Neurosteroids as markers for alzheimer's disease” (priority 2003, published 2003).

Assay [1] deals with NHA cells. Put plainly: ROS measurement by 2,7-DCF fluorescence. The class given is cell-based, human. To be noted: all concentrations of FeSO4 tested. The procedure: (§1) Treatment media was removed and the cells were washed with PBS. The fluorescent probe 2,7-dichlorofluorescin diacetate (2,7-DCF, Molecular Probes, Inc., Eugene, Oreg.) was used to measure levels of oxidative stress (48). Cells were incubated with […] 2,7-DCF, fluorescence was measured at 485 nm/535 nm using the Victor^2 Multilabel Counter (EG&G Wallac, Gaithersburg, Md.) and values of cellular fluorescence were obtained.

Assay [2] deals with serum from AD and control patients. In words: FeSO4 treatment of serum, DHEA by RIA. Also on record: species or system human. The procedure:
(§2) Tissue Samples: For brain samples from Alzheimer's patients and control patients, samples were treated as previously described (17). In brief, aliquots of homogenates were incubated with a final concentration of 30 mM (brain) or 10 mM (serum and CSF) FeSO4 at 37° C. for 2 hours. After 2 hours, samples were extracted and purified as described for the endogenous levels, and assayed by specific radioimmunoassay.
Serum and CSF Levels of DHEA: Serum was obtained from 11 patients, 5 with AD and 6 age-matched controls. Serum samples were split and treated with and without 10 mM FeSO4. Serum and CSF samples were extracted as described for the brain tissue samples, and purified by HPLC. DHEA levels were measured by specific radioimmunoassay.

The test system of the next assay is hNT-PF cells. In words: Alternative pathway D synthesis. The class given is cell-based, human. The protocol:
(§3) Alternative Pathway: To determine the amount of D synthesized by the alternative pathway cells were treated as previously described (15). In brief, cells were washed and oligodendrocytes and astrocytes were incubated with increasing concentrations of FeSO4 in serum free media, with and without SU 10603 (10 mM); neurons were incubated in serum free media containing 5 mM P plus FeSO4, with and without 10 mM SU 10603. After two hours, cells and media were homogenized and extracted as described above. Extracts were run on C18 TLC plates (Whatman, Clifton, N.J.) with a mobile phase of 95% methanol (v/v); radiolabeled standards for P, progesterone, and D were run on each plate, and appropriate steroid fractions were collected for each sample. TLC fractions were extracted with 2 ml diethyl ether (Fluka, New York) and evaporated. TLC extracts were assayed by specific radioimmunoassay (RIA). In separate experiments, steroids eluted from TLC were further identified by HPLC, RIA and Gas Chromatography-Mass Spectrometry (data not shown).
(§4) RIA using antibodies specific for each steroid (ICN Pharmaceuticals, Costa Mesa, Calif. Mesa) was used to measure P, progesterone and D levels. The data were analyzed using the IBM-PC RIA Data Reduction Program (version 4.1) from Jaffe and Associates (Silver Spring, Md.). Levels of β-amyloid species in AD and control brain samples were analyzed using 4G8 (Senetex PLC, Napa, Calif.), a monoclonal antibody to β-amyloid peptide that recognizes amino acids 17-24. Samples in 0.25 M sucrose buffer were run on 4-20% precast gradient gels (Novex, San Diego, Calif.). Samples were transferred to nitrocellulose membranes and incubated in primary antibody for 1 hour at room temperature at a dilution of 1:2000. Membranes were incubated in secondary antibody (1:1000) for 1-1.5 hours at room temperature and blots were visualized using ECL reagents (Amersham Pharmacia Biotech, Pisquataway, N.J.). Blots were exposed to X-OMAT film.

In a further assay the test system is KG-1-C cells. In words: Alternative pathway D synthesis. It counts as cell-based, human. To be noted: increasing concentrations of FeSO4, two hours. The procedure:
as §3, §4

The test system of a further assay is MGM-3 cells. Put plainly: Alternative pathway D synthesis. It counts as cell-based, human. To be noted: increasing concentrations of FeSO4, two hours. The procedure:
as §3, §4

For assay [3], the system named is MGM-1 cells. Put plainly: Alternative pathway D synthesis. To be noted: increasing concentrations of FeSO4, two hours. The class given is cell-based, human. The procedure: as §3, §4
Assay [4] deals with NHA cells. In words: Alternative pathway D synthesis. The class given is cell-based, human. The following applies: FeSO4, two hours, only seen at the highest dose. The protocol: as §3, §4
The test system of assay [5] is brain samples from AD and Control Patients. Put plainly: FeSO4 treatment of brain homogenates, P and D by RIA after HPLC. Further details: species or system human. The procedure:
as §2, §4

For assay [6], the system named is MGM-1 cells. Put plainly: ROS measurement by 2,7-DCF fluorescence. It counts as cell-based, human. The protocol: β-Amyloid Regulation of the Alternative Pathway: MGM-1 cells were plated on 96 well (˜5,000 cells/well, for ROS measurements) or 24 well (˜15,000 cells/well, for D measurements) plates (Corning Costar, Acton, Mass.). At the same time, 1 mg Ab (Ab(1-42), AnaSpec Inc., San Jose, Calif.) was dissolved in 0.5 ml serum-free media and incubated at 4 C. for aggregation. 24 hours later, cells were incubated in DMEM with 10% fetal bovine serum and […] and 10 mM Vitamin E (Sigma, St. Louis, Mo.). Control samples were incubated in DMEM with 10% FBS. Cells were incubated at 37 C. and 6% CO2 for at least 12 hours and processed for ROS generation (see below) or D synthesis as described above for the alternative experiments.
as §1

Assay [7] relates to oligodendrocytes or astrocytes. In words: D production after addition of P. It counts as cell-based, human. The following applies: addition of 5 μM P, data not shown.
Another assay concerns cell lines used. Put plainly: P levels with SU 10603 alone. The class given is cell-based, human. The following applies: any of the cell lines used, data not shown.
The next assay deals with KG-1-C and MGM-3 cells. In words: De novo steroid synthesis from 3H-mevalonactone. The class given is cell-based, human. The following applies: 5 mM SU 10603, KG-1-C and MGM-3 cells, radiolabeled D. The protocol: De Novo Steroid Synthesis: All steroid synthesis experiments were performed with the cells at 60-80% confluency. In order to determine the ability of the cells to synthesize steroids de novo, cells were incubated for two hours at 37 C. and 6% CO2, with specific steroidogenic enzyme inhibitors as previously described (50). In brief, endogenous cholesterol synthesis was blocked by incubating cells with 20 mM Mevastatin in serum-free media (Sigma, St. Louis, Mo.) for 1 hour. 10 mM Trilostane and 5 mM SU 10603 were then added. After 30 minutes, […] ^3H-mevalonactone (33 Ci/mmol, DuPont NEN, Boston, Mass.) and 10 mM cold mevalonactone (Sigma, St. Louis, Mo.) were added. Thirty minutes later, media and cells were combined and homogenized on ice for 20 sec. Homogenates were extracted twice with 4 ml of ether:ethyl acetate (1:1, v/v, Fluka, New York, and EM Science, Gibbstown, N.J.) and evaporated. Extracts were reconstituted in 100% methanol and separated on a Beckman System Gold HPLC system, using a 126NM Solvent Module, 166NM Detector and a Beckman ultrasphere XL 3-mm Spherical 80 A pore column (Beckman, Fullerton, Calif.), eluted on a methanol gradient. Fractions were collected each minute and counted by liquid scintillation spectrometry (EG&G Wallac, Gaithersburg, Md.) to determine production of radiolabeled steroids. […]

Another assay concerns human brain cells. In words: D formation with SU 10603. The class given is cell-based. The following applies: all human brain cells examined. The protocol:
as §3

Assay [8] relates to MGM-1 cells. In words: β-Amyloid regulation of the alternative pathway, D levels. The class given is cell-based, human. The protocol: as §3, with “In separate experiments, steroids eluted from TLC were further identified by HPLC, RIA and Gas Chromatography-Mass Spectrometry (data not shown).” left out
RIA using antibodies specific for each steroid (ICN Pharmaceuticals, Costa Mesa, Calif. Mesa) was used to measure P, progesterone and D levels. The data were analyzed using the IBM-PC RIA Data Reduction Program (version 4.1) from Jaffe and Associates (Silver Spring, Md.). Levels of β-amyloid species in AD and control brain samples were analyzed using 4G8 (Senetex PLC, Napa, Calif.), a monoclonal antibody to β-amyloid peptide that recognizes amino acids 17-24. […]

The next assay concerns Human glioma cells. In words: Vitamin E treatment, ROS and D levels. The class given is cell-based. The following applies: 10 mM Vitamin E, at least twelve hours, data not shown. The protocol: as §3, with “In separate experiments, steroids eluted from TLC were further identified by HPLC, RIA and Gas Chromatography-Mass Spectrometry (data not shown).” left out
Treatment media was removed and the cells were washed with PBS. […] Cells were incubated with […] 2,7-DCF, fluorescence was measured at 485 nm/535 nm using the Victor^2 Multilabel Counter (EG&G Wallac, Gaithersburg, Md.) and values of cellular fluorescence were obtained.
We hypothesized that high endogenous levels of ROS might be responsible for the de novo D formation in KG-1-C and MGM-3 cells. […] We measured ROS and D levels in these cells as described in the Experimental Procedures. […]

The mark [9] stands for this setting: 30 mM FeSO4, frontal cortex, AD patients.
The mark [10] stands for this setting: 30 mM FeSO4, frontal cortex, control patients (C).
[11] abbreviates: 30 mM FeSO4, hippocampus, AD patients.
Setting [12] is: 30 mM FeSO4, hippocampus, control patients (C).
Where [13] appears, read: 30 mM FeSO4, hypothalamus, AD patients.
Setting [14] is: 30 mM FeSO4, hypothalamus, control patients (C).

Turning to `O=S(=O)([O-])[O-].[Fe+2]` [FeSO4], the “ROS levels above untreated cells” value in the assay on NHA cells [1] is listed as “significant increase”; in the assay on MGM-1 cells [6] (all concentrations of FeSO4 tested, MGM-1), “significant increase”. Besides, the “effect on D levels” value is recorded as “little effect” in assay [2] (10 mM FeSO4, AD serum); “not affected” in the assay on hNT-PF cells (increasing concentrations of FeSO4 plus 5 mM P); “did not significantly affect” in the assay with KG-1-C cells; “did not significantly affect” with MGM-3 cells. Moreover, in [2] (10 mM FeSO4, control serum), the “increase in D levels” value was 1.5-3 fold. Further, in the assay with MGM-1 cells [3], the “D synthesis via the alternative pathway” value is listed as “has the ability to make D via the alternative pathway”. Also, the “effect on D formation” value with NHA cells [4] is on record as “significant effect”. For the same molecule, the “D (pg/mg protein)” value in assay [5] (setting [9]) is given as 219.3 pg/mg protein; in [5] (setting [10]), 70.0 pg/mg protein; in assay [5] (setting [11]) it was 241.7 pg/mg protein; in assay [5] (setting [12]), 128.3 pg/mg protein; in assay [5] (setting [13]), 180.8 pg/mg protein; in assay [5] (setting [14]) it was 61.4 pg/mg protein. The “P (pg/mg protein)” value in assay [5] (setting [9]) amounted to 10485.5 pg/mg protein; in assay [5] (setting [10]), 7339.8 pg/mg protein; in assay [5] (setting [11]), 11584.0 pg/mg protein; in [5] (setting [12]) it was 8529.3 pg/mg protein; in assay [5] (setting [13]), 6640.3 pg/mg protein; in [5] (setting [14]), 7707.2 pg/mg protein.
Regarding `CC(=O)[C@H]1CC[C@H]2[C@@H]3CC=C4C[C@@H](O)CC[C@]4(C)[C@H]3CC[C@]12C` [P, pregnenolone], the D production result in [7] is reported as “did not result in increased D production”.
With `O=C1c2cc(Cl)ccc2CCC1c1cccnc1` (centres unmarked) [SU 10603], the “effect on P levels” value with cell lines used is “no effect”. Further, the “blocking endogenous D production” value in the assay with KG-1-C and MGM-3 cells is given as “not effective”. Besides, in the assay with human brain cells, the “inhibition of D formation” value is “did not inhibit”. Also, the “effect on D levels” value in the assay on hNT-PF cells (SU 10603 treatment) is on record as “not affected”.
Take “Aβ: β-amyloid peptide Ab(1-42), AnaSpec Inc., aggregated; a component of Alzheimer's disease plaques”: in the assay on MGM-1 cells [8] (50 mM Aβ, MGM-1, p<0.01), the “D levels versus control” value is “increased D levels significantly over control”. The “2,7-DCF fluorescence (ROS) versus control levels” value in the assay with MGM-1 cells [6] (50 mM Aβ, MGM-1, p<0.01) was “significant increase”.
Vitamin E: the “effect on Aβ-induced increase in D levels” value in the assay with MGM-1 cells [8] (10 mM Vitamin E with 50 mM Aβ, MGM-1, p<0.05 versus Ab) was “blocked”. Moreover, in the assay with Human glioma cells, the “D levels compared to untreated cells” value is recorded as “lowered” and the “ROS levels compared to untreated cells” value is listed as “lowered”. Further, the “effect on Aβ-induced increase in ROS” value in the assay with MGM-1 cells [6] (10 mM Vitamin E with 50 mM Aβ, MGM-1, p=0.054) is “partially blocked”.
